Measurements reported in patent US10150737B2, “Compounds for controlling arthropods” (priority 2013, dated 2018).

What was measured:
[1] = system: Tetranychus urticae; assay: Tetranychus urticae - spray test, OP-resistant; format: in vivo; details: bean leaf discs, after 6 days
Summary of the method: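 Mortality (%) read on day 6 after spraying Phaseolus vulgaris leaf discs carrying all mite stages with formulations at the desired concentration. Formulation: active ingredient in acetone plus dimethylformamide, made up with emulsifier-containing water (1000 ppm alkylaryl polyglycol ether).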

[2] = system: Phaedon cochleariae; assay: Phaedon cochleariae - spray test; format: in vivo; details: larvae on Chinese cabbage leaf discs, after 7 days
Summary of the method: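 Mortality of mustard beetle larvae was scored as % at day 7 on Brassica pekinensis leaf discs. Discs had been treated by spraying at the desired concentration, using an acetone/dimethylformamide solution diluted in water with 1000 ppm alkylaryl polyglycol ether, and dried before larvae were added.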

[3] = system: Musca domestica; assay: Musca domestica test; format: in vivo; details: application rate 100 ppm; adult houseflies; after 2 days
Summary of the method: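 Ten adult Musca domestica are exposed to a sugar-soaked sponge carrying the water-diluted DMSO formulation; kill in % is read 2 days later.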

[4] = system: Spodoptera frugiperda; assay: Spodoptera frugiperda - spray test; format: in vivo; details: caterpillars on maize leaf discs, after 7 days
Summary of the method: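 Percent mortality of Spodoptera frugiperda caterpillars scored 7 days after placing them on dried maize leaf discs sprayed at the desired concentration. Spray formulation: compound dissolved in acetone/dimethylformamide, made up with water containing 1000 ppm emulsifier.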

[5] = system: Amblyomma hebraeum; assay: Amblyomma hebaraeum test (tick nymphs, immersion); format: in vivo; details: application rate 100 ppm; tick nymphs immersed one minute; after 42 days
Method: Solvent: dimethyl sulphoxide
To produce an appropriate active ingredient formulation, 10 mg of active ingredient are mixed with 0.5 ml of dimethyl sulphoxide, and the concentrate is diluted with water to the desired concentration.
Tick nymphs (Amblyomma hebraeum) are placed into perforated plastic beakers and immersed in the desired concentration for one minute. The ticks are transferred on filter paper into a Petri dish and stored in a climate-controlled cabinet.
After 42 days, the kill in % is determined. 100% means that all of the ticks have been killed; 0% means that none of the ticks have been killed.

[6] = system: Boophilus microplus Parkhurst strain, SP-resistant; assay: Boophilus microplus - dip test; format: in vivo; details: application rate 100 ppm; dip of engorged adult female ticks; after 7 days
Summary of the method: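 Compound dissolved in DMSO, diluted with water, and used to fully wet groups of 8-10 engorged female cattle ticks (SP-resistant Parkhurst strain). Fertile egg laying assessed at 7 days, doubtful eggs held ~42 days until hatch; 0% means all eggs fertile.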

[7] = system: Ctenocephalides felis; assay: Ctenocephalides felis - oral test; format: in vivo; details: application rate 100 ppm in citrated cattle blood; after 2 days
Summary of the method: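 Roughly 20 unfed adult C. felis imbibe compound-dosed citrated cattle blood (DMSO formulation) across parafilm from a cylinder above their gauze chamber; percentage mortality recorded at day 2.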

[8] = system: Ctenocephalides felis; assay: Ctenocephalides felis - in vitro contact tests with adult cat fleas; format: in vivo; details: application rate 5 μg/cm2 (=500 g/ha); after 48 h; fleas dead or moribund
Summary of the method: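 Efficacy, as percentage of fleas dead or moribund, was scored at 48 h by knocking fleas to the tube base. Exposure was by contact with a dried acetone film of compound at 5 μg/cm^2 area dose; 5–10 adults per tube, room temperature, ambient humidity.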

[9] = logP determination by HPLC on a reversed-phase column (C18); format: physicochemical; details: for logP^a): HPLC-MS method a); for log P: HPLC-MS
[10] = system: Boophilus microplus; assay: Boophilus microplus - injection test; format: in vivo; details: application rate 20 μg/animal; injection into engorged adult female ticks; after 7 days
Summary of the method: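 Five engorged adult female cattle ticks each received a 1 μl abdominal injection of compound solution in dimethyl sulphoxide. Fertile egg laying was assessed at 7 days, with doubtful eggs incubated about 42 days until hatch. 0% efficacy means all eggs fertile.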

[11] = system: Lucilia cuprina; assay: Lucilia cuprina test; format: in vivo; details: application rate 100 ppm; L1 larvae; after 2 days
Summary of the method: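 Mortality (%) of first-instar blowfly larvae, about 20 per vessel, recorded 2 days after exposure to compound-treated minced horsemeat. Compound dissolved in dimethyl sulphoxide, then water-diluted to the desired concentration.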

[12] = system: Myzus persicae; assay: Myzus persicae - spray test; format: in vivo; details: Chinese cabbage leaf discs, after 6 days
Summary of the method: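 Mortality of the green peach aphid, as % killed, was read 6 days after spraying infested Brassica pekinensis leaf discs. Compound formulated in acetone/dimethylformamide and made up with emulsifier-containing (1000 ppm) water.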

[13] = system: Rhipicephalus sanguineus; assay: Rhipicephalus sanguineus - in vitro contact tests with adult brown dog ticks; format: in vivo; details: after 48 h, ticks dead or moribund
Summary of the method: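 Efficacy, scored after 48 h, is the % of adult ticks dead or moribund, i.e. unable to climb away on a 45-50° C hotplate within 5 min. Tubes held 5-10 ticks in the dark at room temperature, on an acetone-applied coating of 5 μg/cm^2 (900 ppm solution).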

[14] = reversed-phase column (C18), Table I-T3

Structure (SMILES)	efficacy ([1]; application rate 500 g/ha)	efficacy ([2]; application rate 500 g/ha)	efficacy (kill) [3]	efficacy ([4]; application rate 500 g/ha)	efficacy (kill) [5]	efficacy (laying of fertile eggs) [6]	efficacy (kill) [7]	efficacy [8]	logP^a) ([9]; reversed-phase column (C18))	log P [9, 14]	efficacy (laying of fertile eggs) [10]	efficacy (kill) [11]	efficacy ([12]; application rate 100 g/ha)	efficacy ([13]; application rate 5 μg/cm2)	efficacy ([1]; application rate 100 g/ha)	efficacy ([2]; application rate 100 g/ha)	efficacy ([4]; application rate 100 g/ha)	logP^a) [9]	further results
Cc1cc(C(F)(C(F)(F)F)C(F)(F)F)cc(C)c1-n1cc(-c2cnc(Cl)c(C(=O)N(C)C3CC3)c2)cn1 [I-T3-101]	100%	100%	100%	83%	95%	100%	100%	100%	4.4	4.4	100%	100%	100%	–	–	–	–	–	–
Cc1cc(C(F)(C(F)(F)F)C(F)(F)F)cc(Cl)c1-n1cc(-c2ccc(Cl)c(C(=O)NC3CC3)c2)cn1 [I-T3-63]	–	–	100%	–	100%	100%	100%	100%	–	–	100%	100%	–	100%	100%	100%	100%	4.4	logP^a) [9, 14]: 4.4
CCc1cc(C(F)(C(F)(F)F)C(F)(F)F)ccc1-n1cc(-c2cnc(Cl)c(C(=O)NC3CC3)c2)cn1 [I-T3-104]	90%	100%	100%	100%	100%	100%	100%	–	4.2	4.2	100%	100%	–	100%	–	–	–	–	–
O=C(NC1CC1)c1cc(-c2cnn(-c3c(Cl)cc(C(F)(C(F)(F)F)C(F)(F)F)cc3C(F)(F)F)c2)ccc1Cl [I-T3-56]	–	–	100%	–	100%	100%	100%	100%	–	–	100%	100%	–	100%	100%	100%	100%	4.4	logP^a) [9, 14]: 4.4
CCc1cc(C(F)(C(F)(F)F)C(F)(F)F)ccc1-n1cc(-c2cnc(Cl)c(C(=O)NC3(C#N)CC3)c2)cn1 [I-T3-105]	90%	100%	80%	100%	85%	–	100%	–	4.1	4.1	100%	100%	–	–	–	–	–	–	efficacy ([13]; application rate 0.2 μg/cm2): 100%; efficacy ([12]; application rate 500 g/ha): 90%
Cc1cc(C(F)(C(F)(F)F)C(F)(F)F)cc(C)c1-c1cnn(-c2cnc(Cl)c(C(=O)NC3(C#N)CC3)c2)c1 [I-T4-4]	–	–	–	–	100%	100%	100%	100%	–	–	100%	100%	–	100%	100%	100%	100%	–	logP ([9]; HPLC, C18 reversed phase, acetonitrile/water with formic acid, EEC Directive 79/831 Annex V.A8): 4.3
CN(C(=O)c1cc(-c2cnn(-c3c(Cl)cc(C(F)(C(F)(F)F)C(F)(F)F)cc3C(F)(F)F)c2)cnc1Cl)C1(C#N)CC1 [I-T3-116]	90%	100%	100%	100%	100%	100%	100%	100%	4.3	4.3	100%	100%	100%	–	–	–	–	–	–
O=C(NC1CC1)c1cc(-c2cnn(-c3c(F)cc(C(F)(C(F)(F)F)C(F)(F)F)cc3F)c2)ccc1Cl [I-T3-61]	–	–	100%	–	80%	100%	100%	100%	–	–	100%	100%	–	100%	100%	100%	100%	4.0	logP^a) [9, 14]: 4.0
Cc1ncc(-c2cnn(-c3c(Cl)cc(C(F)(C(F)(F)F)C(F)(F)F)cc3C(F)(F)F)c2)cc1C(=O)N(C)C1(C#N)CC1 [I-T3-131]	–	–	100%	–	100%	100%	100%	100%	3.9	3.9	100%	100%	90%	–	100%	100%	100%	–	–
N#CC1(NC(=O)c2cc(-c3cnn(-c4c(Br)cc(C(F)(C(F)(F)F)C(F)(F)F)cc4C(F)(F)F)c3)ccc2Cl)CC1 [I-T3-155]	–	–	100%	–	100%	100%	100%	100%	4.4	4.4	100%	100%	–	100%	100%	100%	100%	–	–
CN(C(=O)c1cc(-c2cnn(-c3c(Cl)cc(C(F)(C(F)(F)F)C(F)(F)F)cc3Cl)c2)cnc1Cl)C1CC1 [I-T3-100]	100%	100%	100%	100%	100%	100%	100%	100%	–	4.4	100%	100%	–	–	–	–	–	4.4	efficacy ([12]; application rate 500 g/ha): 100%
Cc1ncc(-c2cnn(-c3c(Cl)cc(C(F)(C(F)(F)F)C(F)(F)F)cc3C(F)(F)F)c2)cc1C(=O)NC1CC1 [I-T3-124]	–	–	100%	–	100%	100%	100%	100%	3.5	3.5	100%	100%	100%	–	100%	100%	100%	–	–
